Assay results as given in PubChem BioAssay AID1963422 (Molecular Pharmacology Branch, DTP, NCI, 2024).

System: 463943-066-T-J2-PDC complex spheroid growth
Experiment: Anticancer human tumor 463943-066-T-J2-PDC patient-derived colon adenocarcinoma cell line growth inhibition [Asc]
Conditions: for IC50: curve of first compound; for viability, T/C: stronger effect = lower value
Description: Multicellular complex tumor spheroid response to apoptosis pathway targeting inhibitors Alrizomadlin, Pelcitoclax, and Dasminapant in combination with a variety of drugs and investigational agents in selected tumor cell lines
The MDM2 inhibitor alrizomadlin, the Bcl-2/Bcl-xL inhibitor pelcitoclax, and the IAPs inhibitor dasminapant were evaluated both individually and in combination with standard of care and investigational anticancer small molecules within a complex spheroid model of solid tumors. . Complex spheroids include a stromal component modeled by human endothelial cells (HUVEC) and fibroblasts modeled by human mesenchymal stem cells (MSCs). The concentration ranges selected for each drug and investigational agent were based upon clinically achievable concentrations if the clinical Cmax of the agent was known.
Compounds. The drugs and investigational agents: alrizomadlin (APG-115; NSC831270), pelcitoclax (APG-1252; NSC835773), dasminapant (APG-1387;NSC834197), TAK-243 (NSC785004), copanlisib (NSC809693), olaparib (NSC753686), talazoparib (NSC767125), cobimetinib (NSC 768068), eltanexor (KPT-8602, NSC 794443), abemaciclib (NSC 768073), sotorasib (NSC818433), adagrasib (NSC 831453), MRTX-1133 (NSC 836407), Iadademestat (ORY1001, NSC 806812), and RMC-4630 (NSC839698), were obtained from the NCI Developmental Therapeutics Program Chemical Repository. The FDA-approved anticancer drug set is available from the Developmental Therapeutics Program at https://dtp.cancer.gov/organization/dscb/obtaining/available plates.htm. […] The stock solutions were prepared in dimethyl sulfoxide (DMSO, Sigma-Aldrich, St. Louis, MO, cat. D2650) at 800-fold the tested concentration and stored at -70 degrees C prior to their use. All drugs and investigational agents were tested over a range starting from a high concentration at or near the clinical Cmax and decreasing in half-log increments. If the clinical Cmax for an agent had not been determined, the highest concentration tested was 10 microM.
The patient-derived cancer (PDC) cell lines include five colon adenocarcinomas: 186277-243-T-J2-PDC, 616215-338-R-J1-PDC, 439559-082-T-J2-PDC, 463943-066-T-J2-PDC, and 519858-162-T-J1-PDC; three pancreatic carcinomas: 323965-272-R-J2-PDC, 521955-158-R6-J3-PDC, and 521955-158-R2-J5-PDC; two uterine sarcomas: 327498-152-R-J2-PDC and 993429-296-R-J1-PDC; two rhabdomyosarcomas: 755483-174-R-J1-PDC and 772245-204-R-J1-PDC; two soft tissue sarcomas: 126254-015-R-J1-PDC and 494315-158-R-J1-PDC; two malignant fibrous histiocytomas: 317291-083-R-J1-PDC and 596521-263-R-J1-PDC; two breast carcinomas: 171881-019-R-J1-PDC and 885512-296-R-J2-PDC; and one ovarian carcinoma: 6556581-035-R-J-PDC were obtained from the NCI PDMR, (https://pdmr.cancer.gov). The established cell lines HSSY-2 synovial sarcoma (RRID:CVCL 8719), SYO-1 synovial sarcoma (RRID:CVCL_7146), MPNST malignant peripheral neural sheath tumor were obtained from the Sloan Kettering Institute. The following established cell lines were purchased from the American Type Culture Collection (ATCC, Manassas, VA), Sor the received from the NCI repository:, PANC-1 pancreatic carcinoma (CRL-1469, RRID:CVCL_0480), OVCAR-5 ovarian carcinoma (RRID:CVCL_1628), OVCAR-8 ovarian carcinoma (RRID:CVCL_1629), , MCF-7 breast carcinoma (CRL-12584, RRID:CVCL_0031), MDA-MB-231 breast carcinoma (CRL-12532, RRID:CVCL_0062), NCI-H1876 small cell lung carcinoma (CRL-5902, RRID:CVCL_1503), NCI-H510A small cell lung carcinoma (HTB-184, RRID:CVCL_1565), NCI-H1417 (CRL-5869, RRID:CVCL_1469), and NCI-H196 small cell lung carcinoma (CRL-5823, RRID:CVCL_1509). Dr. Peter Houghton (Greehey Children's Cancer Research Institute, University of Texas Health Science Center, San Antonio, TX) provided Rh-18 rhabdomyosarcoma (RRID:CVCL_1659). Pooled donor human umbilical vein endothelial cells (HUVEC, Lonza, cat. CC-2519) and human mesenchymal stem cells (hMSC, Lonza, cat. PT-2501) were purchased from Lonza (Walkersville, MD).
Cell Culture. […]

[1] = second compound 0.00949 µM, first compound 0.00316 µM
[2] = second compound 0.00949 µM, first compound 0.01 µM
[3] = second compound 0.00949 µM, first compound 0.0316 µM
[4] = second compound 0.00949 µM, first compound 0.1 µM
[5] = second compound 0.00949 µM, first compound 0.316 µM
[6] = second compound 0.00949 µM, first compound 1 µM
[7] = second compound 0.03 µM, first compound 0.00316 µM
[8] = second compound 0.03 µM, first compound 0.01 µM
[9] = second compound 0.03 µM, first compound 0.0316 µM
[10] = second compound 0.03 µM, first compound 0.1 µM
[11] = second compound 0.03 µM, first compound 0.316 µM
[12] = second compound 0.03 µM, first compound 1 µM
[13] = second compound 0.0949 µM, first compound 0.00316 µM
[14] = second compound 0.0949 µM, first compound 0.01 µM
[15] = second compound 0.0949 µM, first compound 0.0316 µM
[16] = second compound 0.0949 µM, first compound 0.1 µM
[17] = second compound 0.0949 µM, first compound 0.316 µM
[18] = second compound 0.0949 µM, first compound 1 µM
[19] = second compound 0.3 µM, first compound 0.00316 µM
[20] = second compound 0.3 µM, first compound 0.01 µM
[21] = second compound 0.3 µM, first compound 0.0316 µM
[22] = second compound 0.3 µM, first compound 0.1 µM
[23] = second compound 0.3 µM, first compound 0.316 µM
[24] = second compound 0.3 µM, first compound 1 µM
[25] = second compound 0.949 µM, first compound 0.00316 µM
[26] = second compound 0.949 µM, first compound 0.01 µM
[27] = second compound 0.949 µM, first compound 0.0316 µM
[28] = second compound 0.949 µM, first compound 0.1 µM
[29] = second compound 0.949 µM, first compound 0.316 µM
[30] = second compound 0.949 µM, first compound 1 µM
[31] = second compound 3 µM, first compound 0.00316 µM
[32] = second compound 3 µM, first compound 0.01 µM
[33] = second compound 3 µM, first compound 0.0316 µM
[34] = second compound 3 µM, first compound 0.1 µM
[35] = second compound 3 µM, first compound 0.316 µM
[36] = second compound 3 µM, first compound 1 µM
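Further: compound exposure lasted 7 days.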
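Wherever viability, T/C is given: 100% = DMSO vehicle control wells.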

Compound: CCN1CCN(Cc2ccc(Nc3ncc(F)c(-c4cc(F)c5nc(C)n(C(C)C)c5c4)n3)nc2)CC1 + CCN1C(C(=O)NC23CCC(C(=O)O)(CC2)CC3)C(c2cccc(Cl)c2F)C2(C(=O)Nc3cc(Cl)ccc32)C12CCCCC2
- IC50 (second compound 0.00949 µM): > 1 µM
- IC50 (second compound 0.03 µM): > 1 µM
- IC50 (second compound 0.0949 µM): > 1 µM
- IC50 (second compound 0.3 µM): > 1 µM
- IC50 (second compound 0.949 µM): > 1 µM
- IC50 (second compound 3 µM): > 1 µM
- viability, T/C [1]: 99.6%
- viability, T/C [2]: 92.3%
- viability, T/C [3]: 91.4%
- viability, T/C [4]: 96.2%
- viability, T/C [5]: 110%
- viability, T/C [6]: 113%
- viability, T/C [7]: 94.8%
- viability, T/C [8]: 93.2%
- viability, T/C [9]: 92.7%
- viability, T/C [10]: 92.5%
- viability, T/C [11]: 104%
- viability, T/C [12]: 109%
- viability, T/C [13]: 91.4%
- viability, T/C [14]: 90.8%
- viability, T/C [15]: 84.2%
- viability, T/C [16]: 92%
- viability, T/C [17]: 96.2%
- viability, T/C [18]: 106%
- viability, T/C [19]: 85.6%
- viability, T/C [20]: 76.9%
- viability, T/C [21]: 80.3%
- viability, T/C [22]: 78%
- viability, T/C [23]: 88.9%
- viability, T/C [24]: 106%
- viability, T/C [25]: 74.5%
- viability, T/C [26]: 75.5%
- viability, T/C [27]: 76.2%
- viability, T/C [28]: 75.4%
- viability, T/C [29]: 81.5%
- viability, T/C [30]: 99.4%
- viability, T/C [31]: 72.5%
- viability, T/C [32]: 71.8%
- viability, T/C [33]: 71.8%
- viability, T/C [34]: 74.4%
- viability, T/C [35]: 88.8%
- viability, T/C [36]: 103%

Compound: O=C(c1ccc(F)c(F)c1Nc1ccc(I)cc1F)N1CC(O)([C@@H]2CCCCN2)C1 + CCN1C(C(=O)NC23CCC(C(=O)O)(CC2)CC3)C(c2cccc(Cl)c2F)C2(C(=O)Nc3cc(Cl)ccc32)C12CCCCC2
- IC50 (second compound 0.00949 µM): 0.188 µM
- IC50 (second compound 0.03 µM): 0.133 µM
- IC50 (second compound 0.0949 µM): 0.117 µM
- IC50 (second compound 0.3 µM): 0.0706 µM
- IC50 (second compound 0.949 µM): 0.0349 µM
- IC50 (second compound 3 µM): 0.0177 µM
- viability, T/C [1]: 86.3%
- viability, T/C [2]: 78.7%
- viability, T/C [3]: 74.2%
- viability, T/C [4]: 63.5%
- viability, T/C [5]: 39.1%
- viability, T/C [6]: 27.9%
- viability, T/C [7]: 93.5%
- viability, T/C [8]: 77.5%
- viability, T/C [9]: 63.7%
- viability, T/C [10]: 56.2%
- viability, T/C [11]: 40%
- viability, T/C [12]: 29%
- viability, T/C [13]: 84.5%
- viability, T/C [14]: 74.7%
- viability, T/C [15]: 65.7%
- viability, T/C [16]: 50.8%
- viability, T/C [17]: 39.4%
- viability, T/C [18]: 28.2%
- viability, T/C [19]: 79.5%
- viability, T/C [20]: 65.2%
- viability, T/C [21]: 54.9%
- viability, T/C [22]: 50.5%
- viability, T/C [23]: 37.8%
- viability, T/C [24]: 29.6%
- viability, T/C [25]: 67.8%
- viability, T/C [26]: 60%
- viability, T/C [27]: 48.3%
- viability, T/C [28]: 44.1%
- viability, T/C [29]: 39.5%
- viability, T/C [30]: 32.4%
- viability, T/C [31]: 65%
- viability, T/C [32]: 55.7%
- viability, T/C [33]: 44.2%
- viability, T/C [34]: 40.4%
- viability, T/C [35]: 36.6%
- viability, T/C [36]: 33.8%
